In ChEMBL document CHEMBL1150644, “Corticatic acids D and E, polyacetylenic geranylgeranyltransferase type I inhibitors, from the marine sponge Petrosia corticata” (J Nat Prod, 2002):
Converted amounts (≈) assume the structure as drawn.

Tests used:
[1] = test system: Candida albicans; assay: Antimicrobial activity against Candida albicans; format: functional
[2] = Inhibition of Candida albicans GGTase 1 by streptavidin scintillation proximity assay

| MIC [1] [µM] | IC50 [2] [µM] | SMILES |
| --- | --- | --- |
| 54 (≈ 25.1 µg/mL) | 1.9 | C#CC(O)/C=C/CCCCCC#CC/C=C\CCCCCCCCCCC/C=C\C#CC(=O)O (centres undefined) [CORTICATIC ACID A] |
| – | 3.3 | C#C[C@H](O)/C=C/CCCCCC#C/C=C/C(O)CCCCCCCCCCC/C=C\C#CC(=O)O (some centres undefined) [CORTICATIC ACID D] |
| – | 7.3 | C#C[C@H](O)/C=C/CCCCC/C=C\C/C=C\CCCCCCCCCCC/C=C\C#CC(=O)O [CORTICATIC ACID E] |
